Assay results as given in patent publication US9233989B2, “Sila analogs of oxazolidinone derivatives and synthesis thereof” (Council of Scientific & Industrial Research, priority 2011, dated 2016).
In brackets after ≈: the same amount, converted by molar mass.

What was measured:
[1] = system: S.aureus ATCC 13709 Smith; experiment: MIC by microbroth dilution method; format: cell-based
S.aureus ATCC 29213 = experiment: MIC by microbroth dilution method; format: cell-based
MRSA ATCC 43300 = experiment: MIC by microbroth dilution method; format: cell-based, S. aureus
MRSA 562 = experiment: MIC by microbroth dilution method; format: cell-based, S. aureus
S.aureus2 (PVL + ve) = format: cell-based, S. aureus
[2] = system: S.aureus ATCC Newman 25904; experiment: MIC by microbroth dilution method; format: cell-based
MRSA ATCC BAA 39 = experiment: MIC by microbroth dilution method; format: cell-based, S. aureus
S.aureus DB00026 = experiment: MIC by microbroth dilution method; format: cell-based
MRSA 252 BAA 1720 = experiment: MIC by microbroth dilution method; format: cell-based, S. aureus
S.epidermidis ATCC 14990 = experiment: MIC by microbroth dilution method; format: cell-based
MRSE ATCC 35984 = experiment: MIC by microbroth dilution method; format: cell-based, S. epidermidis
E.faecalis ATCC 29212 = experiment: MIC by microbroth dilution method; format: cell-based
[3] = system: E.faecalis ATCC 51299(VRE&HLAR); experiment: MIC by microbroth dilution method; format: cell-based
E.faecalis ATCC 19433 = experiment: MIC by microbroth dilution method; format: cell-based
E.faecium ATCC 19434 = experiment: MIC by microbroth dilution method; format: cell-based
E.faecium ATCC 49224 = experiment: MIC by microbroth dilution method; format: cell-based
E.faecium ATCC 35667 = experiment: MIC by microbroth dilution method; format: cell-based
E.coli 7632 = experiment: MIC by microbroth dilution method; format: cell-based
[4] = system: S.aureus ATCC 49775 PVL + ve; format: cell-based
[5] = system: S.aureus ATCC 700699 Mu50; experiment: MIC by microbroth dilution method; format: cell-based
MRSA 0-2657 = experiment: MIC by microbroth dilution method; format: cell-based, S. aureus
MRSA DB 00026 = experiment: MIC by microbroth dilution method; format: cell-based, S. aureus
[6] = system: S.aureus 13709 LNZ mutant; format: cell-based
S.epidermidis ATCC 12228 = experiment: MIC by microbroth dilution method; format: cell-based
MRSE ATCC 35983 = experiment: MIC by microbroth dilution method; format: cell-based, S. epidermidis
S.epidermis St 358 = experiment: MIC by microbroth dilution method; format: cell-based, S. epidermidis
E.faecalis SP 346 VRE = experiment: MIC by microbroth dilution method; format: cell-based
E.faecium 6A VRE = experiment: MIC by microbroth dilution method; format: cell-based
E.faecium 134 VRE = experiment: MIC by microbroth dilution method; format: cell-based
E.faecium 06076 VRE = experiment: MIC by microbroth dilution method; format: cell-based
E.faecium ATCC 3567 = experiment: MIC by microbroth dilution method; format: cell-based
[7] = system: Mycobacterium tuberculosis H37Rv; experiment: Anti-TB activity, colorimetric resazurin microtiter assay; format: cell-based; conditions: for MIC: Mycobacterium tuberculosis, H37RV, read-out: MIC, Minimum Inhibitory Concentration (90%)

SMILES: COC(=S)NC[C@H]1CN(c2ccc(N3CC[Si](C)(C)CC3)c(F)c2)C(=O)O1 [NDS-10062, (S)—O-methyl((3-(4-(4,4-dimethyl-1,4-azasilinan-1-yl)-3-fluorophenyl)-2-oxooxazolidin-5-yl)methyl)carbamothioate]
- MIC [1]: 4 µg/mL (≈ 9.72 µM)
- MIC (S.aureus ATCC 29213): 4 µg/mL (≈ 9.72 µM)
- MIC (MRSA ATCC 43300): 4 µg/mL (≈ 9.72 µM)
- MIC (MRSA 562): 4 µg/mL (≈ 9.72 µM)
- MIC (S.aureus2 (PVL + ve)): 4 µg/mL (≈ 9.72 µM)
- MIC [2]: 4 µg/mL (≈ 9.72 µM)
- MIC (MRSA ATCC BAA 39): 4 µg/mL (≈ 9.72 µM)
- MIC (S.aureus DB00026): 4 µg/mL (≈ 9.72 µM)
- MIC (MRSA 252 BAA 1720): 8 µg/mL (≈ 19.4 µM)
- MIC (S.epidermidis ATCC 14990): 4 µg/mL (≈ 9.72 µM)
- MIC (MRSE ATCC 35984): 2 µg/mL (≈ 4.86 µM)
- MIC (E.faecalis ATCC 29212): 1 µg/mL (≈ 2.43 µM)
- MIC [3]: 4 µg/mL (≈ 9.72 µM)
- MIC (E.faecalis ATCC 19433): 2 µg/mL (≈ 4.86 µM)
- MIC (E.faecium ATCC 19434): 8 µg/mL (≈ 19.4 µM)
- MIC (E.faecium ATCC 49224): 4 µg/mL (≈ 9.72 µM)
- MIC (E.faecium ATCC 35667): 4 µg/mL (≈ 9.72 µM)
- MIC (E.coli 7632): 2 µg/mL (≈ 4.86 µM)
- MIC [4]: 4 µg/mL (≈ 9.72 µM)
- MIC [5]: 8 µg/mL (≈ 19.4 µM)
- MIC (MRSA 0-2657): 4 µg/mL (≈ 9.72 µM)
- MIC (MRSA DB 00026): 4 µg/mL (≈ 9.72 µM)
- MIC [6]: 4 µg/mL (≈ 9.72 µM)
- MIC (S.epidermidis ATCC 12228): > 32 µg/mL
- MIC (MRSE ATCC 35983): 4 µg/mL (≈ 9.72 µM)
- MIC (S.epidermis St 358): 4 µg/mL (≈ 9.72 µM)
- MIC (E.faecalis SP 346 VRE): 4 µg/mL (≈ 9.72 µM)
- MIC (E.faecium 6A VRE): 8 µg/mL (≈ 19.4 µM)
- MIC (E.faecium 134 VRE): 4 µg/mL (≈ 9.72 µM)
- MIC (E.faecium 06076 VRE): 4 µg/mL (≈ 9.72 µM)
- MIC (E.faecium ATCC 3567): 4 µg/mL (≈ 9.72 µM)
- MIC [7]: 50 µg/mL (≈ 121 µM)

SMILES: CC(=O)NC[C@H]1CN(c2cc(F)c(N3CC[Si](C)(C)CC3)c(F)c2)C(=O)O1 [NDS-10028, (S)—N-((3-(4-(4,4-dimethyl-1,4-azasilinan-1-yl)-3,5-difluorophenyl)-2-oxooxazolidin-5-yl)methyl)acetamide]
- MIC [1]: 8 µg/mL (≈ 20.1 µM)
- MIC (S.aureus ATCC 29213): > 16 µg/mL
- MIC (MRSA ATCC 43300): > 32 µg/mL
- MIC (MRSA 562): 8 µg/mL (≈ 20.1 µM)
- MIC (S.aureus2 (PVL + ve)): > 32 µg/mL
- MIC [2]: > 32 µg/mL
- MIC (MRSA ATCC BAA 39): 8 µg/mL (≈ 20.1 µM)
- MIC (S.aureus DB00026): > 32 µg/mL
- MIC (MRSA 252 BAA 1720): > 32 µg/mL
- MIC (S.epidermidis ATCC 14990): 4 µg/mL (≈ 10.1 µM)
- MIC (MRSE ATCC 35984): 8 µg/mL (≈ 20.1 µM)
- MIC (E.faecalis ATCC 29212): 8 µg/mL (≈ 20.1 µM)
- MIC [3]: 8 µg/mL (≈ 20.1 µM)
- MIC (E.faecalis ATCC 19433): 16 µg/mL (≈ 40.3 µM)
- MIC (E.faecium ATCC 19434): 8 µg/mL (≈ 20.1 µM)
- MIC (E.faecium ATCC 49224): 8 µg/mL (≈ 20.1 µM)
- MIC (E.faecium ATCC 35667): 8 µg/mL (≈ 20.1 µM)
- MIC (E.coli 7632): > 32 µg/mL
- MIC [4]: 16 µg/mL (≈ 40.3 µM)
- MIC [5]: 8 µg/mL (≈ 20.1 µM)
- MIC (MRSA 0-2657): 8 µg/mL (≈ 20.1 µM)
- MIC (MRSA DB 00026): 8 µg/mL (≈ 20.1 µM)
- MIC [6]: > 16 µg/mL
- MIC (S.epidermidis ATCC 12228): 4 µg/mL (≈ 10.1 µM)
- MIC (MRSE ATCC 35983): 4 µg/mL (≈ 10.1 µM)
- MIC (S.epidermis St 358): 8 µg/mL (≈ 20.1 µM)
- MIC (E.faecalis SP 346 VRE): 8 µg/mL (≈ 20.1 µM)
- MIC (E.faecium 6A VRE): 4 µg/mL (≈ 10.1 µM)
- MIC (E.faecium 134 VRE): 8 µg/mL (≈ 20.1 µM)
- MIC (E.faecium 06076 VRE): 8 µg/mL (≈ 20.1 µM)
- MIC (E.faecium ATCC 3567): 16 µg/mL (≈ 40.3 µM)
- MIC [7]: > 50 µg/mL

SMILES: CCC(=O)NC[C@H]1CN(c2cc(F)c(N3CC[Si](C)(C)CC3)c(F)c2)C(=O)O1 [NDS-10056, (S)—N-((3-(4-(4,4-dimethyl-1,4-azasilinan-1-yl)-3,5-difluorophenyl)-2-oxooxazolidin-5-yl)methyl)propionamide]
- MIC [1]: > 32 µg/mL
- MIC (S.aureus ATCC 29213): > 32 µg/mL
- MIC (MRSA ATCC 43300): 16 µg/mL (≈ 38.9 µM)
- MIC (MRSA 562): 8 µg/mL (≈ 19.4 µM)
- MIC (S.aureus2 (PVL + ve)): 8 µg/mL (≈ 19.4 µM)
- MIC [2]: 16 µg/mL (≈ 38.9 µM)
- MIC (MRSA ATCC BAA 39): 32 µg/mL (≈ 77.8 µM)
- MIC (S.aureus DB00026): > 32 µg/mL
- MIC (MRSA 252 BAA 1720): 32 µg/mL (≈ 77.8 µM)
- MIC (S.epidermidis ATCC 14990): 16 µg/mL (≈ 38.9 µM)
- MIC (MRSE ATCC 35984): 32 µg/mL (≈ 77.8 µM)
- MIC (E.faecalis ATCC 29212): 32 µg/mL (≈ 77.8 µM)
- MIC [3]: 8 µg/mL (≈ 19.4 µM)
- MIC (E.faecalis ATCC 19433): 32 µg/mL (≈ 77.8 µM)
- MIC (E.faecium ATCC 19434): 32 µg/mL (≈ 77.8 µM)
- MIC (E.faecium ATCC 49224): 32 µg/mL (≈ 77.8 µM)
- MIC (E.faecium ATCC 35667): 32 µg/mL (≈ 77.8 µM)
- MIC (E.coli 7632): > 32 µg/mL
- MIC [4]: 32 µg/mL (≈ 77.8 µM)
- MIC [5]: 16 µg/mL (≈ 38.9 µM)
- MIC (MRSA 0-2657): 16 µg/mL (≈ 38.9 µM)
- MIC (MRSA DB 00026): 32 µg/mL (≈ 77.8 µM)
- MIC [6]: > 32 µg/mL
- MIC (S.epidermidis ATCC 12228): 8 µg/mL (≈ 19.4 µM)
- MIC (MRSE ATCC 35983): 32 µg/mL (≈ 77.8 µM)
- MIC (S.epidermis St 358): 32 µg/mL (≈ 77.8 µM)
- MIC (E.faecalis SP 346 VRE): 16 µg/mL (≈ 38.9 µM)
- MIC (E.faecium 6A VRE): 8 µg/mL (≈ 19.4 µM)
- MIC (E.faecium 134 VRE): 32 µg/mL (≈ 77.8 µM)
- MIC (E.faecium 06076 VRE): > 32 µg/mL
- MIC (E.faecium ATCC 3567): 32 µg/mL (≈ 77.8 µM)
- MIC [7]: 50 µg/mL (≈ 121 µM)

SMILES: CC(=O)NCC1CN(c2ccc(N3CC[Si](C)(C)CC3)c(F)c2)C(=O)O1 (centres unmarked) [NDS-10026, N-((3-(4-(4,4-dimethyl-1,4-azasilinan-1-yl)-3-fluorophenyl)-2-oxooxazolidin-5-yl)methy)acetamide]
- MIC [1]: > 16 µg/mL
- MIC (S.aureus ATCC 29213): 16 µg/mL (≈ 42.2 µM)
- MIC (MRSA ATCC 43300): 32 µg/mL (≈ 84.3 µM)
- MIC (MRSA 562): 16 µg/mL (≈ 42.2 µM)
- MIC (S.aureus2 (PVL + ve)): 32 µg/mL (≈ 84.3 µM)
- MIC [2]: 32 µg/mL (≈ 84.3 µM)
- MIC (MRSA ATCC BAA 39): 16 µg/mL (≈ 42.2 µM)
- MIC (S.aureus DB00026): 32 µg/mL (≈ 84.3 µM)
- MIC (MRSA 252 BAA 1720): 32 µg/mL (≈ 84.3 µM)
- MIC (S.epidermidis ATCC 14990): 16 µg/mL (≈ 42.2 µM)
- MIC (MRSE ATCC 35984): 16 µg/mL (≈ 42.2 µM)
- MIC (E.faecalis ATCC 29212): > 16 µg/mL
- MIC [3]: 16 µg/mL (≈ 42.2 µM)
- MIC (E.faecalis ATCC 19433): > 16 µg/mL
- MIC (E.faecium ATCC 19434): > 16 µg/mL
- MIC (E.faecium ATCC 49224): 8 µg/mL (≈ 21.1 µM)
- MIC (E.faecium ATCC 35667): 8 µg/mL (≈ 21.1 µM)
- MIC (E.coli 7632): > 32 µg/mL
- MIC [4]: > 16 µg/mL
- MIC [5]: 16 µg/mL (≈ 42.2 µM)
- MIC (MRSA 0-2657): 16 µg/mL (≈ 42.2 µM)
- MIC (MRSA DB 00026): > 16 µg/mL
- MIC [6]: > 16 µg/mL
- MIC (S.epidermidis ATCC 12228): 16 µg/mL (≈ 42.2 µM)
- MIC (MRSE ATCC 35983): 16 µg/mL (≈ 42.2 µM)
- MIC (S.epidermis St 358): > 16 µg/mL
- MIC (E.faecalis SP 346 VRE): > 16 µg/mL
- MIC (E.faecium 6A VRE): 16 µg/mL (≈ 42.2 µM)
- MIC (E.faecium 134 VRE): 16 µg/mL (≈ 42.2 µM)
- MIC (E.faecium 06076 VRE): > 16 µg/mL
- MIC (E.faecium ATCC 3567): > 16 µg/mL
- MIC, Minimum Inhibitory Concentration (90%) ([7]; inhibition of Mycobacterium tuberculosis H37Rv growth, 7H9-OADC media, 37° C., visual readout): 50 µg/mL (≈ 132 µM)
